Read-outs that look alike come from different tables or passages of the source.
How the values were obtained:
[1] = format: in vitro ADME; settings: bovine, serum
in vitro = in vitro ADME; settings: rabbit, cerebrospinal or other body fluid, pH 7
Procedure: This conversion kinetics test was carried out by incubating, at 37° C., 25 μl of a sample of the solution described above, with gentle stirring, with 8 μl of fresh rabbit tear. 2 μl samples were taken at intervals of 1, 2, 3 and 30 minutes, and were then analyzed by HPLC.

[2] = rat, in vivo, iv, 10 mg/kg
cornea = experiment: Confocal laser scanning opthalmoscope test (subacute ocular toxicity); settings: rabbit cornea, 25 μl three times a day for four days; (XV) aqueous solution, Cyclosporin A 1% in olive oil
Procedure: The solutions were sterilized by passing them through 0.22 μm nitrocellulose filters.
This test was carried out on the same type of animal as previously. 25 μl of a solution as described above were instilled onto the cornea of the right eye three times a day for four days, and then once on the fourth day just before observation. After the final installation, the rabbits were sedated by administering ketamine hydrochloride and xylazine. A total of 25 μl of a solution of sodium fluorescein at 0.5% by weight/volume were instilled onto the eye in order to allow selective labeling of the surfaces possibly damaged. The eye was then rinsed for one minute with a saline solution at 37° C.
The opthalmoscope was coupled to an image analysis system in order to be able to reconstitute an image in three dimensions and to allow evaluation of the damaged areas.

[3] = Water-solubility by visual examination in 67 mM Sorensen phosphate buffers; format: physicochemical; settings: 67 mM Sorensen phosphate buffer, ambient temperature
esterases = experiment: Enzymatic stability: hydrolysis in Hepes buffer in the presence of esterases; settings: 50 mM Hepes buffer, pH 7.4, 37° C., FIG. 1
Procedure: During the incubation at 37° C., 40 μl aliquots are sampled at appropriate time periods and analyzed by HPLC and ESI-MS.

[4] = T1/22 (terminal half-life time)

| solubility ([3]; pH 5) [mM] | solubility ([3]; pH 6, read-out: Water-solubility at pH = 6) [mM] | solubility ([3]; pH 7) [mM] | solubility ([3]; pH 8, read-out: Water-solubility at pH = 8) [mM] | Structure (SMILES) | half-life [1] [h] | metabolised at 0.05 h, 0.76 % (weight/volume) Cyclosporin A equivalent (in vitro) [%] | AUC(0-inf) [2] [ng·h/mL] | MRT [2] [h] | clearance [2] [mL/min/kg] | half-life ([2]; T1/21 (initial half-life time)) [h] | half-life [2, 4] [h] | CLSO, % lesions (corneal lesions) (cornea) [%] | hydrolysis in the presence of esterases (release of Cyclosporin A) (esterases) |
| --- | --- | --- | --- | --- | --- | --- | --- | --- | --- | --- | --- | --- | --- |
| – | – | – | – | C/C=C/C[C@@H](C)[C@@H](OC(=O)CN(C)C(=O)[C@H](CCCC[N+](C)(C)C)NC(=O)OC(C)OC(C)=O)[C@H]1C(=O)N[C@@H](CC)C(=O)N(C)CC(=O)N(C)[C@@H](CC(C)C)C(=O)N[C@@H](C(C)C)C(=O)N(C)[C@@H](CC(C)C)C(=O)N[C@@H](C)C(=O)N[C@H](C)C(=O)N(C)[C@@H](CC(C)C)C(=O)N(C)[C@@H](CC(C)C)C(=O)N(C)[C@@H](C(C)C)C(=O)N1C (stereo partly shown) [(XV), MeBmt(O-Sar-Lys(Nε^+Me3)-COOCH(CH3)OCOCH3))^1-CsA.I^−] | 3.66 | 3 | 66600 | 15.3 | 2.5 | 0.55 | 11.8 | 7 | – |
| > 20 | > 20 | > 20 | > 20 | C/C=C/C[C@@H](C)[C@@H](OC(=O)CN(C)C(=O)[C@H](COP(=O)(O)O)NC(=O)OC(C)OC(C)=O)[C@H]1C(=O)N[C@@H](CC)C(=O)N(C)CC(=O)N(C)[C@@H](CC(C)C)C(=O)N[C@@H](C(C)C)C(=O)N(C)[C@@H](CC(C)C)C(=O)N[C@@H](C)C(=O)N[C@H](C)C(=O)N(C)[C@@H](CC(C)C)C(=O)N(C)[C@@H](CC(C)C)C(=O)N(C)[C@@H](C(C)C)C(=O)N1C (stereo partly shown) [(XVI), MeBmt(O-Sar-Ser(OPO(OH)2)—COOCH(CH3)OCOCH3)^1-CsA] | 3.5 | – | 44700 | 14.9 | 3.67 | 0.2 | 11.8 | – | rapidly degrades to release the Cyclosporin A |
